Results as given in BindingDB's records for doi:10.7270/Q21V5CDC (Burnham Center For Chemical Genomics, 2010).
Several values for one entry are separate records, joined by “and”; a condition that tells them apart may be missing. Identical values can stand only once.

The compounds below were run against T1, Amyloid-beta A4 precursor protein-binding family A member 1 (Rattus norvegicus, UniProt O35430) (assay: disruptors of Mint-PDZ/N-type channel peptide interaction – biochemical, HTRF, SAR follow-up (AID 2489)).
T1 sequence (O35430 whole entry): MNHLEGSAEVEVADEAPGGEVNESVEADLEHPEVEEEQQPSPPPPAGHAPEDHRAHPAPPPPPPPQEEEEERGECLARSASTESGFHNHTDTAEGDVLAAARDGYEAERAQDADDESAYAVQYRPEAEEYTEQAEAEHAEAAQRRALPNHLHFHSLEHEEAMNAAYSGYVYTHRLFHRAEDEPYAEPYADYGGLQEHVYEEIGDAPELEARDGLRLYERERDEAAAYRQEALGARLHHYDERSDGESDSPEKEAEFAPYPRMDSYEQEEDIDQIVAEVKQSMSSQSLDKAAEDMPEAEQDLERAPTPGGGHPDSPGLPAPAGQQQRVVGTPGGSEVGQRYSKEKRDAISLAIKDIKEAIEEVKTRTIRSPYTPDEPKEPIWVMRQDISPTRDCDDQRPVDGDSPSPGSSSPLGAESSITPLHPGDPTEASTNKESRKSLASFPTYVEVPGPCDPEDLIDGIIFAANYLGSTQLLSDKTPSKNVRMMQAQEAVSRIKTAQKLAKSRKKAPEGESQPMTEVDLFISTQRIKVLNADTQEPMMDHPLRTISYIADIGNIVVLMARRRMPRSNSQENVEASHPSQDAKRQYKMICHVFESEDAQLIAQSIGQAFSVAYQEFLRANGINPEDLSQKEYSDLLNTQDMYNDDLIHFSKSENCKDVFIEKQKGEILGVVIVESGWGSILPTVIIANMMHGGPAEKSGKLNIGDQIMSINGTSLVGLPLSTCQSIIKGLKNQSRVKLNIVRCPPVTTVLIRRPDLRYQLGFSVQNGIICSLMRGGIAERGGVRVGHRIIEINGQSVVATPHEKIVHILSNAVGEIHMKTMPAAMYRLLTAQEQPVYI

Compound | IC50
CCCCc1ccc(CC2=C(C(=O)OCC)C(=O)c3ccccc3C2=O)cc1 | 16.2 µM
CC12C=CC(C)(O1)c1c2c(O)n(-c2ccc3c(c2)OCO3)c1O | > 56.8 µM
CC(=O)Oc1cccc(-n2c(O)c3c(c2O)C2(C)C=CC3(C)O2)c1 | 12 µM and 18.3 µM
CC12C=CC(C)(O1)c1c2c(O)n(-c2ccc(Cl)cc2)c1O | > 56.8 µM
Cc1ccc(-n2c(O)c3c(c2O)C2(C)C=CC3(C)O2)cc1 | 11.5 µM
CC12C=CC(C)(O1)c1c2c(O)n(-c2ccc(F)cc2)c1O [2-(4-fluorophenyl)-4,7-dimethyl-3a,7a-dihydro-octahydro-1H-4,7-epoxyisoindole-1,3-dione] | 10.7 µM
Cc1cccc(-n2c(O)c3c(c2O)C2(C)C=CC3(C)O2)c1 [4,7-dimethyl-2-(3-methylphenyl)-3a,7a-dihydro-octahydro-1H-4,7-epoxyisoindole-1,3-dione] | 27.6 µM
CC12C=CC(C)(O1)c1c2c(O)n(-c2ccccc2)c1O [4,7-dimethyl-2-phenyl-3a,7a-dihydro-octahydro-1H-4,7-epoxyisoindole-1,3-dione] | 11.7 µM
CC(=O)Oc1ccc(-n2c(O)c3c(c2O)C2C=CC3O2)cc1 [[4-(1,3-dioxo-3a,4,7,7a-tetrahydro-octahydro-1H-4,7-epoxyisoindol-2-yl)phenyl] acetate] | > 56.8 µM

Continued, values first:

IC50 | Compound
7.82 µM | CC(=O)Oc1ccc(-n2c(O)c3c(c2O)C2(C)C=CC3(C)O2)cc1 [MLS000107813]
> 56.8 µM | COC(=O)c1cc(-n2c(O)c3c(c2O)C2(C)C=CC3(C)O2)ccc1Cl [MLS000107828]
7.19 µM | CCCc1ccc(CC2=C(C(=O)OCC)C(=O)c3ccccc3C2=O)cc1 [MLS000571357]
